Test results taken from patent publication US12389911B2, “Benzimidazole compound or salt thereof, agricultural and horticultural insecticidal and acaricidal agent containing said compound, and method for using same” (NIHON NOHYAKU CO., LTD., priority 2019, dated 2025).

Key:
Format in all cases: in vivo
[1] = tested on: Two-spotted spider mite (Tetranychus urticae); assay: Acaricidal action on two-spotted spider mite (kidney bean leaf disk spray); settings: 500 ppm, adult females, 25° C., two days after treatment
In short: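 Kidney bean leaf disks (2 cm) carrying adult female T. urticae were sprayed with compound dispersion at 500 ppm and held at 25 °C. Dead mites counted 2 days later and corrected mortality calculated against untreated plots; 10 adults per plot, in duplicate.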

[2] = tested on: Small brown planthopper (Laodelphax striatellus); assay: Insecticidal test on small brown planthopper (rice seedling dip); settings: 500 ppm, rice seedlings dipped 30 seconds, ten 3rd-instar larvae, 8 days after inoculation
Text: Insecticidal Test on Small Brown Planthopper (Laodelphax striatellus)
The benzimidazole compounds represented by the general formula (1) of the present invention or salts thereof were separately dispersed in water and diluted to 500 ppm. Rice plant seedlings (variety: Nihonbare) were dipped in the agrochemical dispersions for 30 seconds. After air-dried, each seedling was put into a separate glass test tube and inoculated with ten 3rd-instar larvae of small brown planthopper, and then the glass test tubes were capped with cotton plugs. At 8 days after the inoculation, survival rates were calculated from the numbers of surviving larvae and dead larvae, the corrected mortality rate was calculated according to the formula shown below, and the insecticidal efficacy was evaluated according to the criteria shown below. Corrected mortality rate (%)=(Survival rate in a non-treatment plot−Survival rate in a treatment plot)/(Survival rate in a non-treatment plot)×100 [Expression 2] Criteria: • A: the corrected mortality rate is 100%. • B: the corrected mortality rate is 90 to 99%. • C: the corrected mortality rate is 80 to 89%. • D: the corrected mortality rate is 50 to 79%.

[3] = tested on: Diamondback moth (Plutella xylostella); assay: Insecticidal test on diamondback moth (dip of Chinese cabbage seedlings with laid eggs); settings: 500 ppm, seedlings with laid eggs dipped about 30 seconds, 25° C., 6 days after dip treatment
Text: Insecticidal Test on Diamondback Moth (Plutella xylostella)
Adults of diamondback moth were released onto Chinese cabbage seedlings and allowed to lay eggs thereon. At 2 days after the release of the adults, the Chinese cabbage seedlings with laid eggs were dipped for about 30 seconds in agrochemical dispersions diluted to 500 ppm, each of which contained a different benzimidazole compound represented by the general formula (1) of the present invention or salt thereof as an active ingredient. After air-dried, the seedlings were kept in a thermostatic chamber at 25° C. At 6 days after the dip treatment, the number of hatched larvae per plot was counted, the corrected mortality rate was calculated according to the formula shown below, and the insecticidal efficacy was evaluated according to the criteria of Test Example 2. This test was conducted in triplicate using 10 adults of diamondback moth per plot. Corrected mortality rate (%)=(Number of hatched larvae in a non-treatment plot−Number of hatched larvae in a treatment plot)/(Number of hatched larvae in a non-treatment plot)×100 [Expression 3]

[4] = tested on: Green peach aphid (Myzus persicae); assay: Test for control efficacy on green peach aphid (foliar application on Chinese cabbage); settings: 500 ppm, foliar application to potted Chinese cabbage, 6 days after application
Text: Test for Control Efficacy on Green Peach Aphid (Myzus persicae) Chinese cabbage plants were planted in plastic pots (diameter: 8 cm, height: 8 cm), green peach aphids were propagated on the plants, and the number of surviving Green peach aphids in each pot was counted. The benzimidazole compounds represented by the general formula (1) of the present invention or salts thereof were separately dispersed in water and diluted to 500 ppm. The agrochemical dispersions were applied to the foliage of the potted Chinese cabbage plants. After the plants were air-dried, the pots were kept in a greenhouse. At 6 days after the foliar application, the number of surviving Green peach aphids on the Chinese cabbage plant in each pot was counted, the control rate was calculated according to the formula shown below, and the control efficacy was evaluated according to the criteria shown below. Control rate=100−{(T×Ca)/(Ta×C)}×100 [Expression 1] Ta: the number of survivors before the foliar application in a treatment plot T: the number of survivors after the foliar application in a treatment plot Ca: the number of survivors before the foliar application in a non-treatment plot C: the number of survivors after the foliar application in a non-treatment plot Criteria • A: the control rate is 100%. • B: the control rate is 90 to 99%. • C: the control rate is 80 to 89%. • D: the control rate is 50 to 79%.

Row | Compound | acaricidal efficacy (corrected mortality rate), activity level [1] | insecticidal efficacy (corrected mortality rate), activity level [2] | insecticidal efficacy (corrected mortality rate), activity level [3] | control efficacy (control rate), activity level [4]
1 | CCS(=O)(=O)n1c(-n2cnc(CCc3ccccc3)c2)nc2ccccc21 [Compound 1-9] | D or higher | D or higher | – | –
2 | CCS(=O)(=O)n1c(-n2cnc(CCc3ccc(C(F)(F)F)cc3)c2)nc2ccccc21 [Compound 1-11] | D or higher | – | D or higher | –
3 | CCS(=O)(=O)n1c(-n2cnc(C(F)(C(F)(F)F)C(F)(F)F)c2)nc2ccccc21 [Compound 1-22, 1-ethanesulfonyl-2-(4-heptafluoroisopropylimidazol-1-yl)benzimidazole] | D or higher | D or higher | – | –
4 | CCS(=O)(=O)n1c(-n2cc(CCc3ccccc3)cn2)nc2ccccc21 [Compound 2-3] | D or higher | – | D or higher | –
5 | CCS(=O)(=O)n1c(-n2ccc(C(F)(F)F)n2)nc2ccccc21 [Compound 2-12] | D or higher | D or higher | – | –
6 | CCS(=O)(=O)n1c(-n2nc(C(F)(F)F)cc2C)nc2ccccc21 [Compound 2-17] | D or higher | D or higher | – | –
7 | C=Cc1cn(-c2nc3ccccc3n2S(=O)(=O)CC)nc1C(F)(F)F [Compound 2-21] | D or higher | D or higher | – | –
8 | CCS(=O)(=O)n1c(-n2cc(CCc3ccccc3)c(C(F)(F)F)n2)nc2ccccc21 [Compound 2-23] | D or higher | – | D or higher | –
9 | CCS(=O)(=O)n1c(-n2cc(C(=O)Oc3c(C)cccc3C)c(C(F)(F)F)n2)nc2ccccc21 [Compound 2-29] | D or higher | D or higher | – | –
10 | CCS(=O)(=O)n1c(-n2cc(SC(C)C)c(C(F)(F)F)n2)nc2ccccc21 [Compound 2-32] | D or higher | D or higher | – | –
11 | CCS(=O)(=O)n1c(-n2ccc(OCC(F)(F)C(F)(F)F)n2)nc2ccccc21 [Compound 2-38] | D or higher | – | D or higher | –
12 | CCc1nn(-c2nc3ccccc3n2S(=O)(=O)CC)cc1C(=O)OC(C)(C)C [Compound 2-49] | D or higher | – | D or higher | –
13 | CCS(=O)(=O)n1c(-n2cc(C(=O)OC(C)C)c(C(F)(F)F)n2)nc2ccccc21 [Compound 2-53] | D or higher | – | – | D or higher
14 | CCC(C)(C)OC(=O)c1cn(-c2nc3ccccc3n2S(=O)(=O)CC)nc1C(F)(F)F [Compound 2-54] | D or higher | – | – | D or higher
15 | CCS(=O)(=O)n1c(-n2cnc(C(F)(F)F)n2)nc2ccccc21 [Compound 3-1] | D or higher | – | – | D or higher
